{
  "source": "patent US5620973A",
  "about": "“Tetracyclic condensed heterocyclic compounds and their use” (priority 1993, dated 1997)",
  "key": {"[1]": {"details": "cited from earlier work; for anti-senile dementia activity: Int. J. Clin. Pharmacol. Ther. Toxicol. 29, 23-37, 1991"}, "Acetylcholinesterase": {"biological_target": "T1, Acetylcholinesterase (Rattus norvegicus, UniProt P37136)", "T1 construct": "using the S1 fraction of a male Wistar rat cerebral cortex homogenate as a source of cholinesterase; from tissue; host or cells: male Wistar rat cerebral cortex homogenate, S1 fraction", "T1 sequence (P37136 32-614)": "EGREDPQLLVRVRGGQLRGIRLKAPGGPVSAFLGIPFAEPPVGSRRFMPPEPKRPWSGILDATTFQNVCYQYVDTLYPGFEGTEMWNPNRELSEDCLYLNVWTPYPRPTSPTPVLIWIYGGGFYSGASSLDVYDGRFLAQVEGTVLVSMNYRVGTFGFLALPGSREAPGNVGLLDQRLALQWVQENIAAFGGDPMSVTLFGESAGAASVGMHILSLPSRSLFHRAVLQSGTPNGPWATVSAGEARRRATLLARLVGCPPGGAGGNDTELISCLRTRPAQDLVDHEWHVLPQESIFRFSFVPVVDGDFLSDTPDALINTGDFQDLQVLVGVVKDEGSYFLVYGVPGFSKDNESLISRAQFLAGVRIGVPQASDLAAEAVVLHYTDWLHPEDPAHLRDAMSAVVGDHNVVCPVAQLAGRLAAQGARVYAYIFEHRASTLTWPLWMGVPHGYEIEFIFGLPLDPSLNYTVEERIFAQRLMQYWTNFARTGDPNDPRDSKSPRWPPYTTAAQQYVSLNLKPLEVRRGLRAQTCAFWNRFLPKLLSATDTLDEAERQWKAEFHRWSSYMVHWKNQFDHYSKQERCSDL", "assay": "biochemical", "set-up": "species or system male Wistar rat", "protocol": "The cholinesterase inhibitory activity of the compound of this invention was evaluated using (acetyl[[^3 H])-acetylcholine. Thus, using the S1 fraction of a male Wistar rat cerebral cortex homogenate as a source of cholinesterase, (acetyl[^3 H])-acetylcholine as a substrate, and the compound of this invention as a test substance, the system was incubated for 30 minutes. The reaction was then stopped and a toluenic scincillator was added. After shaking, [^3 H]-acetic acid produced and transferred into the toluene layer was counted with a liquid scincillation counter to estimate the cholinesterase inhibitory activity of the test substance."}, "[2]": {"test_system": "norepinephrine (NE) reuptake", "assay": "monoamine reuptake inhibitory activity, [^3 H]-norepinephrine (NE)", "type": "biochemical, male JCl: Wistar rats", "details": "[^3 H]-NE 11 nM; P2 pellet of rat cerebral cortex and hippocampus; 37° C., 5 minutes; read-out: Monoamine uptake inhibitory activity IC50, NE", "procedure": "(§1) The monoamine reuptake inhibitory activity of the compound of this invention was evaluated using [^3 H]-norepinephrine (NE) and [^3 H]-serotonin(5-HT).\n(§2) Thus, the brain was enuleated from male JCl: Wistar rats (aged 9-13 weeks) and the cerebral cortex and the hippocampus were isolated. The tissue was homogenized (Potter, 5 strokes) with about 10-15 volumes of ice-cooled 0.32M sucrose and centrifuged at 1.000×g for 10 minutes. The supernatant was further centrifuged at 20,000×g for 20 minutes to provide a pellet (P2). This pellet was suspended in Krebs-Ringer bicarbonate solution (KRB) (KRB: 116 mM NaCl, 4.8 mM KCl, 1.3 mM CaCl2, 1,2 mM MgSO4, 1,2 mM NaH2 PO4, 25 mM NaHCO3, 0.1 mM EDTA-2Na, 11.1 mM D-glucose, 0.11 mM L-ascorbic acid, 0.01 mM pargyline-HCl; 95% O2 /5% CO2) and aliquots of the suspension were used for assays.\n(§3) The test compound (10 μl as dissolved in DMSO at 100 times the final concentration) was mixed with 900 μl of the P2 suspension and the mixture was preincubated at 37° C. for 5 minutes. Then, 100 μl of [^3 H]-NE (final concentration 11 nM) or [^3 H]-5-HT (final concentration 10 nM) was added and the mixture was incubated at 37° C. for 5 minutes. […] The filter was transferred to a minature vial, 4 ml of scintillator was added, and the radioactivity was counted with a liquid scintillation counter. […]"}, "[3]": {"test_system": "serotonin (5-HT) reuptake", "assay": "monoamine reuptake inhibitory activity, [^3 H]-serotonin (5-HT)", "type": "biochemical, male JCl: Wistar rats", "details": "[^3 H]-5-HT 10 nM; P2 pellet of rat cerebral cortex and hippocampus; 37° C., 5 minutes; read-out: Monoamine uptake inhibitory activity IC50, 5-HT", "procedure": "as §1, §2, §3"}, "[4]": {"details": "S1 fraction of male Wistar rat cerebral cortex homogenate, 30 minutes incubation, read-out: Acetylcholinesterase inhibitory activity IC50"}},
  "note": "Structures can show the parent of a compound that is named as a salt. Where two headings read alike, the source gives them in different places.",
  "data": [
    {"smiles": "CNC(=O)Oc1ccc2c(c1)[C@]1(C)CCN(C)[C@@H]1N2C", "note": "(stereo in doubt) [Physostigmine, physostigmine]", "values": [
      {"measurement": "anti-senile dementia activity", "setting": "[1]", "value": "have been found to have anti-senile dementia activity"},
      {"measurement": "duration of action", "setting": "[1]; background", "value": "short duration of action"},
      {"measurement": "toxic potential", "setting": "[1]; background", "value": "high toxic potential"}
    ]},
    {"smiles": "O=C(CCN1CCN(Cc2ccccc2)CC1)c1cc2c3c(c1)C1CCCCC1N3C(=O)CC2", "note": "(stereo not drawn) [Example 1, 5-[3-[4-(Phenylmethyl)-1-piperazinyl]-1-oxopropyl]-2,3,6b,7,8,9,10,10a-octahydro-1H-pyrido[3,2,1-jk]carbazol-6-one dihydrochloride]", "values": [
      {"measurement": "IC50", "setting": "Acetylcholinesterase; [4]", "value": 77.5, "unit": "nM"}
    ]},
    {"smiles": "O=C(CCN1CCN(Cc2ccccc2)CC1)c1ccc2c(c1)CN1C(=O)c3ccccc3C1CC2", "note": "(stereo not drawn) [Example 2-1]", "values": [
      {"measurement": "IC50", "setting": "Acetylcholinesterase; [4]", "value": 16.4, "unit": "nM"},
      {"measurement": "IC50", "setting": "[2]", "value": 1040, "unit": "nM"},
      {"measurement": "IC50", "setting": "[3]", "value": 70, "unit": "nM"}
    ]},
    {"smiles": "O=C(CCC1CCN(Cc2ccccc2)CC1)c1ccc2c(c1)CN1C(=O)c3ccccc3C1CC2", "note": "(stereo not drawn) [Example 4, 3-[3-[1-(Phenylmethyl)-4-piperidinyl]-1-oxopropyl]-7,11b,12,13-tetrahydro-5H-isoindolo[2,1-b][2]benzazepin-7-one hydrochloride]", "values": [
      {"measurement": "IC50", "setting": "Acetylcholinesterase", "value": 2.4, "unit": "nM"}
    ]},
    {"smiles": "O=C(CCN1CCN(Cc2cccc(Cl)c2)CC1)c1ccc2c(c1)CN1C(=O)c3ccccc3C1CC2", "note": "(stereo not drawn) [Example 6-2]", "values": [
      {"measurement": "IC50", "setting": "Acetylcholinesterase; [4]", "value": 65.5, "unit": "nM"}
    ]},
    {"smiles": "O=C(CCN1CCN(Cc2cccc(F)c2)CC1)c1ccc2c(c1)CN1C(=O)c3ccccc3C1CC2", "note": "(stereo not drawn) [Example 6-3]", "values": [
      {"measurement": "IC50", "setting": "Acetylcholinesterase; [4]", "value": 17.4, "unit": "nM"}
    ]},
    {"smiles": "O=C(CCC1CCN(Cc2ccccc2)CC1)c1cc2c3c(c1)C1CCCCC1N3C(=O)CC2", "note": "(stereo not drawn) [Example 7, 5-[3-[1-(Phenylmethyl)-4-piperidinyl]1-oxopropyl]-2,3,6b, 7,8,9,10,10a-octahydro-1H-pyrido[3,2,1-jk]carbazol-6-one fumarate]", "values": [
      {"measurement": "IC50", "setting": "Acetylcholinesterase", "value": 7.93, "unit": "nM"}
    ]},
    {"smiles": "CN(C)CCCN1c2ccccc2CCc2ccccc21", "note": "[Imipramine, imipramine, reference compound]", "values": [
      {"measurement": "IC50", "setting": "[2]", "value": 1120, "unit": "nM"},
      {"measurement": "IC50", "setting": "[3]", "value": 63, "unit": "nM"}
    ]},
    {"smiles": "Nc1c2c(nc3ccccc13)CCCC2", "note": "[THA, tacrine]", "values": [
      {"measurement": "anti-senile dementia activity", "setting": "[1]", "value": "have been found to have anti-senile dementia activity"},
      {"measurement": "hepatic impairment", "setting": "[1]; background", "value": "severe hepatic impairment is often associated"}
    ]}
  ]
}
